The target of experiment [1] is T1, PAD1 (Homo sapiens, UniProt Q9ULC6).
T1 construct: purchased Professor Hidenari Takahara (University of Ibaraki, Japan)
T1 sequence (Q9ULC6 1-663): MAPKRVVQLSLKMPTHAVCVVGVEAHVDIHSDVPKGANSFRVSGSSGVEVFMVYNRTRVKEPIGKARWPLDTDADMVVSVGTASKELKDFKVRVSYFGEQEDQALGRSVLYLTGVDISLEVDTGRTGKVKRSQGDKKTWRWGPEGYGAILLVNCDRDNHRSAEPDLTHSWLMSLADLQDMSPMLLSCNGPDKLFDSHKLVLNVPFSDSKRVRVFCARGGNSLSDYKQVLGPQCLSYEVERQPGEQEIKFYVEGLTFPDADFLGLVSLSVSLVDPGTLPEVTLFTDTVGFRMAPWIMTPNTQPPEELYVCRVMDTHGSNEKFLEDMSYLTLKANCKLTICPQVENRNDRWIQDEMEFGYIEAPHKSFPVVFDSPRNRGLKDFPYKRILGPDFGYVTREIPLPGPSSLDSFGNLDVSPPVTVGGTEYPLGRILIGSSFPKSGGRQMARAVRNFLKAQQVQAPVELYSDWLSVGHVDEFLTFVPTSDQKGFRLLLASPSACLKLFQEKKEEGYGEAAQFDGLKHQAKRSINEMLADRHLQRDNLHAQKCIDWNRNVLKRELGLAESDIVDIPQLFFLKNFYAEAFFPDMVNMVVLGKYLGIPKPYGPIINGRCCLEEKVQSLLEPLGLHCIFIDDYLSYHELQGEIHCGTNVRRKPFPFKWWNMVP
The experiment can be described thus: Deimination of recombinant human filaggrin (Fil-His) by PAD1, immunodetection with AMC anti-citrulline antibody. The class given is biochemical. Conditions: 5 mM streptomycin vs solvent alone (1% dimethylsulfoxide); 3 or 5 min incubation.
Procedure: 25 ng of Fil-His was incubated at 50° C. in the presence of 40 mU of PAD1 or PAD3 in deimination buffer (10 mM CaCl2, 5 mM dithiothreitol, 50 mM Tris-HCl pH 7.4). After a variable incubation period according to the PAD isoform (generally 2 to 5 minutes for PAD1 and 60 to 180 minutes for PAD3), the reaction was quenched by adding sample buffer. The proteins were then separated by SDS-PAGE and immunodetected by AHF11 anti-filaggrin monoclonal antibody and AMC modified anti-citrulline antibody (Millipore, Mollsheim, France) diluted to 1/5000.
The deimination of Fil-His (25 ng) was carried out as described above (paragraph A.3), in deimination buffer (10 mM CaCl2, 5 mM dithiothreitol, 50 mM Tris-HCl pH 7.4) at 50° C. in the presence of 40 mU of PAD1 or PAD3, for 0, 3, 5, 60 and 180 minutes. […] In certain cases, the active agents were diluted in water. After incubation, the proteins of the reaction mixture were immunodetected by AMC antibody. The immunodetection intensity was quantified by densitometry with the NIH ImageJ software.

The test system of experiment [2] is Reconstructed human epidermises. Briefly: Deiminated proteins in horny layer of reconstructed epidermises after topical gel, immunohistology (AMC). The class given is cell-based. Conditions: gel containing 3% acefylline as sodium salt, 24 hours. On the procedure:
Reconstructed human epidermises 0.33 cm^2 in size were grown at the air-liquid interface for 14 days. 5 mg/cm^2 of pre-formulas containing the various active agents was then applied homogeneously to their surface using a brush. Triplicates were carried out for a treatment period of 24 hours at 37° C. The epidermises were then divided: half were frozen in Tissue Tek and then 6 μm cryo-sections were made for immunohistology; the other half were dry frozen at −80° C. for the preparation of total protein extracts before analysis by Western blot.
The deiminated proteins were immunodetected as described above after incubation in modification buffer. Negative controls were prepared systematically by omitting the modification. After washing with water, the sections were incubated with AMC anti-citrulline antibody diluted to 1/1000. Finally, counter-staining was carried out with hematoxylin.

For the compound `[H]/N=C(/N)N[C@H]1[C@H](O)[C@@H](O)[C@H](O[C@@H]2O[C@@H](C)[C@](O)(C=O)[C@H]2O[C@@H]2O[C@@H](CO)[C@H](O)[C@@H](O)[C@@H]2NC)[C@@H](N/C(N)=N\[H])[C@@H]1O` [streptomycin], the “Effect on PAD1 (AMC immunodetection intensity of deiminated Fil-His)” value in experiment [1] was “inhibited”.

For the compound `Cn1c(=O)c2c(ncn2CC(=O)[O-])n(C)c1=O.[Na+]` [acefylline in the form of sodium salt], the “Immunodetection intensity (AMC staining) of the horny layer vs control gel” value in experiment [2] is recorded as “stronger”.

For the origin of these results see patent US9566222B2, “Peptidyl arginine deiminase 1 and/or 3 activator compounds in the epidermis and uses thereof” (PIERRE FABRE DERMO-COSMETIQUE, priority 2011, dated 2017).
